The text below walks through data of patent US7632528B1, “Antimigraine combination comprising Sapindus and Emblica extracts” (Lupin Limited, priority 2000, dated 2009).

The subject of one data set is migraine attacks. The following applies: cited from earlier work.
The test system of the next data set is patients having migraine. The experiment in a line: Multi-centric double blind clinical studies (placebo, flunarizine, internal crossover). Type of data set: in vivo, human. The source says: The objective of this study was to evaluate the efficacy and tolerability of the formulation as a prophylactic monotherapy in comparison with a placebo in patients having migraine. Patients were included in the study based on the following criteria: those aged between 15–60 years, diagnosed as having migraine as per International Headache Society Classification (IHSC) guidelines; those with at least two or more attacks of acute migraine per month for at least 6 months; women of child bearing age who take contraceptive measures during the study and those taking no other prophylactic therapy during the study period or alteast one month prior to the study. A detailed ENT examination was conducted prior to the study to rule out any nasal pathology. A written consent was taken from each patient.
Patients with more than 8 attacks a month, unstable angina, hypertension, cardiac failure, severe left ventricular failure, atrophic rhinitis, nasal polyposis, patients taking any prophylactic medication within 1 month of the study, patients with psychiatric disorders, pregnant/nursing women, patients with glaucoma and Parkinson's disease were excluded from the study.
This study, a multi-centric, randomised placebo controlled double blind (test formulation versus matched saline placebo) was conducted at five centres. A non-randomised single blind (test formulation versus flunarizine) study was conducted at two of the five centres. An internal crossover study was done at three of the five centres by cross over of patients in the test formulation and placebo groups.
The duration of study was eight months. The period of treatment was three months. Patients later on were crossed over internally (test formulation and placebo) for further treatment of three months and a follow-up period of two months. One drop of the test formulation was administered into each nostril two times a day, once in the morning and once in the evening. One drop of placebo was administrated into each nostril, once in the morning and once in the evening. flurnarizine tablet (10 mg) was administered once a day orally.
The enrolled patients underwent a general examination, E.N.T. examination and laboratory tests. Each patient was given a diary to record the details of the migraine, episodes, any adverse events(pre- and post-treatment) as well as details of rescue modification taken, if any. The same was also recorded by the investigator.
Patients were instructed on how to record the details of various visual symptoms, nausea, vomiting and headache (viz. time of onset, relief, and any additional treatment) and grade them according to severity (4 point scale) in diary. The recorded observations in the diary were reviewed every month of the study period.
The efficacy of the prophylactic treatment was evaluated on the following basis: • At least 50% reduction in the intensity or duration of migraine attacks (mean duration of migraine in hours) per month at the end of 12 weeks of treatment, compared to baseline. • Reduction in the frequency of attack per month using test formulation and flunarizine compared to placebo (>or =50%). • Consumption of drugs for symptomatic relief of breakthrough attacks in the three groups. • At least 50% or more reduction of attack in patients who respond to test formulation compared to the reduction of attack in patients given placebo. • The safety and patient compliance of test formulation was assessed on the basis of incidence and severity of side effects in each groups compared to placebo and number of drop outs in each group compared to placebo. Results
The results of the trial was statistically analysed based on the following parameters:
• 1. Atleast 50% reduction in the frequency of migraine attacks • 2. Atleast 50% reduction in the duration of migraine attacks • 3. Reduction in the severity of migraine attacks [graded as none (0), mild (1), moderate (2) and severe (3) • 4. […]

Data set [1] is described as follows: Colouration of the formulation on storage. Type of data set: physicochemical. The following applies: 3 months. The source says: To prevent any colouration during storage of the formulation it is preferable to add an anti-oxidant to prevent the colouration. Sodium metabisulfite is preferably used. When this anti-oxidant is not added the colour of the solution changes from initial colourless to straw yellow to dark yellow in one month's time and to dark brown in three months. Addition of sodium bisulfite arrests the change in colouration. This can be used in a concentration ranging from 0.020% to 0.080% wt/vol of the composition. A range of 0.04 to 0.05% being the most preferred
Tabulation of the colour change as a function of the concentration of the sodium meta bisulfite concentration is given below in Table-III.
The importance of purging the entire system with nitrogen reflects in the colouration to the product. When no nitrogen is bubbled in to the system the colour of the formulation changes to yellow within 3 months, indicating degradation. In batches where the system is constantly kept under nitrogen atmosphere, no change in colouration is observed even after 3 months.

In the next data set the test system is nasal mucosa. The experiment in a line: Nasal mucosal irritation as a function of additives in the formulation. Type of data set: in vivo. The following applies: used as the preservative of the aqueous formulation.
Where [2] appears, read: end of third follow-up, comparison with flunarizine.

Counter-ions that a name gives are not always drawn.

For the molecule `CN1C[C@H](C(=O)N[C@]2(C)O[C@@]3(O)[C@@H]4CCCN4C(=O)[C@H](Cc4ccccc4)N3C2=O)C=C2c3cccc4[nH]cc(c34)C[C@H]21` [Ergotamine, Ergotamine tartrate], the “incidence of side effects” value with migraine attacks (over that observed on use of NSAIDs) was 17–41%.
As for `Fc1ccc(C(c2ccc(F)cc2)N2CCN(C/C=C/c3ccccc3)CC2)cc1` [Flunarizine, flunarizine], the “DROP OUT RATE (%)” value in the data set with patients having migraine (3 months treatment) came out at 43%. Also, the “Reduction in mean frequency of attacks” value in the data set with patients having migraine (at each follow-up) is “significant difference reduction in the mean frequency of attacks at the end each follow up”. In addition, in the data set on patients having migraine (at the follow-ups), the “Reduction in the duration of attacks” value was “significant reduction in the duration of attacks only at the end of the second and third follow-up”. For the same molecule, the “Patients with ≧50% REDUCTION IN DURATION” value in the data set on patients having migraine (end of third follow up, comparison with flunarizine) came out at 52.0%. Also, in the data set with patients having migraine (setting [2]), the “Patients with ≧50% REDUCTION IN DISABILITY” value is listed as 69.6% and the “Patients with ≧50% REDUCTION IN SEVERITY” value was 42.3%. In addition, the “Patients with ≧50% REDUCTION IN FREQUENCY” value with patients having migraine (third follow up, comparison with flunarizine) was determined as 81.5%.
Take `O=S([O-])S(=O)(=O)[O-].[Na+].[Na+]` [Sodium meta bisulfite]: the Change in colour entry is recorded as “Colourless→light brown (3 months)” in data set [1] (sodium meta bisulfite 0.020 % w/v); “Colourless→light Yellow (3 months)” in data set [1] (sodium meta bisulfite 0.040 % w/v); “Colourless→very light Yellow (3 months)” in data set [1] (sodium meta bisulfite 0.050 % w/v); “Remains Colourless (3 months)” in data set [1] (sodium meta bisulfite 0.075 % w/v); “Remains Colourless (3 months)” in data set [1] (sodium meta bisulfite 0.080 % w/v).
In the case of `CNS(=O)(=O)Cc1ccc2[nH]cc(CCN(C)C)c2c1` [Sumatriptan, sumatriptan], the “relief to migraine attacks” value in the data set on migraine attacks (in one hour, placebo less than 27%) is listed as 70%.
Regarding benzalkonium chloride, the Mucosal irritation result with nasal mucosa was “causes mucosal irritation”.
